{"source": "paper PMC9133036", "about": "(Nature Communications, 2022)", "key": {"OX2R T111S": {"target": "T1, OX2R T111S (Homo sapiens, UniProt O43614, T111S)", "T1 construct": "FLAG; expressed in transfected cells; host or cells: HEK293", "T1 sequence (O43614 1-444 T111S)": "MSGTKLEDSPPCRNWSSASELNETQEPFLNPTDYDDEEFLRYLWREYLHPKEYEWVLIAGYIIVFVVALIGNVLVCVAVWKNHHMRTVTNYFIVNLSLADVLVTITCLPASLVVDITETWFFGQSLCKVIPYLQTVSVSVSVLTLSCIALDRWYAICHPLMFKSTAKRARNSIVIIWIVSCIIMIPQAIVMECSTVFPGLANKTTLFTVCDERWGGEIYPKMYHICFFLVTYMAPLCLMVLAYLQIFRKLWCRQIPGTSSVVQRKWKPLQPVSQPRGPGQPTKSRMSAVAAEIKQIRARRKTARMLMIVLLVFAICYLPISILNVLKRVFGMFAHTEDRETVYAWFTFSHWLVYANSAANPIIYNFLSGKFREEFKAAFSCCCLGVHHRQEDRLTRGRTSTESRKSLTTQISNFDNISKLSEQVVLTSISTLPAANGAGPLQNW", "assay": "IP accumulation assay, OX2R T111S", "assay_type": "cell-based", "source_text": "The IP assay was adapted from a prior precedent. HEK293 cells were maintained in DMEM-high glucose (Millipore Sigma) supplemented with 5% fetal bovine serum (Corning) and penicillin-streptomycin (Millipore Sigma). Receptor constructs used were the full-length wild-type (or mutant) human OX1R and OX2R sequences cloned into pCDNA3. To enhance the Emax in the IP assay, a plasmid encoding full-length human Gαq subunit[66] was co-transfected into HEK293 cells with plasmids encoding orexin receptor constructs using Lipofectamine 3000 (Thermo Fisher). 24 h after transfection, the cells were plated on poly-D-lysine coated (Millipore Sigma) tissue culture-treated 96 well white plates with clear bottoms (Perkin Elmer) at 30,000 cells per well in Inositol-free DMEM (MP Biomedicals) supplemented with 5% fetal bovine serum, 4 mM L-glutamine (Millipore Sigma), penicillin-streptomycin, and about 5 uCi (5 ul) per ml myo-[2-3H] inositol (Perkin Elmer). The following day, the media was replaced with agonists that were diluted in HBSS (Millipore Sigma) containing 10 mM lithium chloride (Millipore Sigma) and incubated at 37 °C for 45 min. Then agonists were removed and cells were lysed on ice for 30 min with 10 mM formic acid (Millipore Sigma). 1.25 mg of poly-lysine coated YSI SPA beads (Perkin Elmer) was added to each well. The plates were mixed on an orbital shaker for 30 min. The plates were read on a MicroBeta scintillation counter (Perkin Elmer) the following day. IP accumulation assays on different constructs were performed in n ≥ 3 independent experiments (each done in duplicate), where n is shown in Supplementary Table 2."}, "OX2R W120A": {"target": "T2, OX2R W120A (Homo sapiens, UniProt O43614, W120A)", "T2 construct": "expressed in transfected cells; host or cells: CHO-K1 stably expressing EA β-arrestin2", "T2 sequence (O43614 whole entry W120A)": "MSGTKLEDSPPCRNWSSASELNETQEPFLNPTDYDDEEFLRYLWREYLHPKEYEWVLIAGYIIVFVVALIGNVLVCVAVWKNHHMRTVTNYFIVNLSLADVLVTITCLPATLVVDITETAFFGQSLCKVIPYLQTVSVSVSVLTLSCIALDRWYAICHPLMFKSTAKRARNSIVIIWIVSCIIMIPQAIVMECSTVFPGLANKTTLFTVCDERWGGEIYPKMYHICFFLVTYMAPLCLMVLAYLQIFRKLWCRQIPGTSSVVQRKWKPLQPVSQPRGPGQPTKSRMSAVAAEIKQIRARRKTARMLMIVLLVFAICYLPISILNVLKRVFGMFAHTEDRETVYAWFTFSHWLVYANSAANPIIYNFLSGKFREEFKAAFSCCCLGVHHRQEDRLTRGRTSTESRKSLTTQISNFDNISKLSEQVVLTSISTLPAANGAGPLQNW", "assay": "β-arrestin PathHunter assay, OX2R W120A", "assay_type": "cell-based", "settings": "β-arrestin recruitment", "procedure": "(§1) β-Arrestin recruitment activity was measured by using the PathHunter system (DiscoveRX) according to the manufacturer’s instruction. Receptor constructs used were the full-length wild-type (or mutant) human OX2R sequences cloned into pCMV-ProLink (DiscoveRX). CHO-K1 cells stably expressing EA β-arrestin2 (DiscoveRX) were plated on 384 well white plates (Thermo Fisher) at 4000 cells/well in HamF12 (Wako Pure Chemical Industries) supplemented with 10% fetal bovine serum (Corning) and penicillin-streptomycin (Wako Pure Chemical Industries) and incubated overnight at 37 °C under 5% CO2. Cells were transfected with plasmids encoding wild type or each mutant ProLink-tagged human OX2R using FuGENE HD (Promega). […] Detection reagent was added and incubated for 1 h at room temperature. Luminescent signal was detected using an EnVision plate reader (PerkinElmer). β-arrestin assays on different constructs were performed in two or three independent experiments (each done in quadruplicate). Dose response curves (shown in Supplementary Fig. 8) were fitted to the three-parameter model ‘log(agonist) vs response’ in GraphPad Prism to determine pEC50 values."}, "OX2R Q187A": {"target": "T3, OX2R Q187A (Homo sapiens, UniProt O43614, Q187A)", "T3 construct": "expressed in transfected cells; host or cells: CHO-K1 stably expressing EA β-arrestin2", "T3 sequence (O43614 whole entry Q187A)": "as the sequence (O43614 whole entry W120A) above, with A120W, Q187A counted along it", "assay": "β-arrestin PathHunter assay, OX2R Q187A", "assay_type": "cell-based", "settings": "β-arrestin recruitment", "procedure": "as §1"}, "OX2R Y317A": {"target": "T4, OX2R Y317A (Homo sapiens, UniProt O43614, Y317A)", "T4 construct": "expressed in transfected cells; host or cells: CHO-K1 stably expressing EA β-arrestin2", "T4 sequence (O43614 1-444 Y317A)": "T1 sequence (O43614 1-444 T111S) with S111T, Y317A", "assay": "β-arrestin PathHunter assay, OX2R Y317A", "assay_type": "cell-based", "settings": "for EC50: β-arrestin recruitment", "procedure": "as §1"}, "OX2R V353A": {"target": "T5, OX2R V353A (Homo sapiens, UniProt O43614, V353A)", "T5 construct": "expressed in transfected cells; host or cells: CHO-K1 cells stably expressing EA β-arrestin2 (DiscoveRX), transiently transfected with pCMV-ProLink OX2R", "T5 sequence (O43614 whole entry V353A)": "as the sequence (O43614 whole entry W120A) above, with A120W, V353A counted along it", "T5 sequence (P32121 whole entry partner)": "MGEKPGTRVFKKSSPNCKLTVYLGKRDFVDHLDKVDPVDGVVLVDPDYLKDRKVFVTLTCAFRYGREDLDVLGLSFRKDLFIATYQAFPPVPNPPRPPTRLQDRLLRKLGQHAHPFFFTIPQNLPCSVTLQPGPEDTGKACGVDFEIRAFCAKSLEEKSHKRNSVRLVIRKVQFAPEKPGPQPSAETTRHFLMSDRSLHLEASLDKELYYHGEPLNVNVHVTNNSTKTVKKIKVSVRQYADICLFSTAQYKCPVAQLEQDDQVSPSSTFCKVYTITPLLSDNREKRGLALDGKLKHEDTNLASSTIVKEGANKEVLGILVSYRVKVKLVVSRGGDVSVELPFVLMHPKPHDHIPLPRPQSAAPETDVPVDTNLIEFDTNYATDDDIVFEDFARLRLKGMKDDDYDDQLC", "assay": "β-arrestin PathHunter assay, OX2R V353A", "assay_type": "cell-based", "settings": "β-arrestin recruitment", "procedure": "as §1"}, "wakefulness": {"test_system": "wakefulness", "settings": "subcutaneous delivery during the sleep period; cited from earlier work"}}, "note": "Substitutions are numbered along the chain they refer to. “And” between values parts separate entries of the source, which are not always exact repeats. Identical values can stand only once. Like-named read-outs stand apart in the source and are kept apart here."}
{"molecule": "COC(=O)N1CCC[C@H](NS(C)(=O)=O)[C@@H]1CO[C@H]1CC[C@@H](c2ccccc2)CC1", "note": "[TAK-925, methyl (2R,3S)−3-[(methylsulfonyl)amino]−2-{[(cis−4-phenylcyclohexyl)oxy]methyl}piperidine-1-carboxylate]", "values": [{"measurement": "EC50", "setting": "OX2R T111S; IP accumulation", "result": 0.23, "unit": "µM"}, {"measurement": "% IP accumulation", "setting": "OX2R T111S; TAK-925 conc (log, M) -4.00, normalized to OX2R WT Emax", "result": "70.98% and 87.26% and 72.84%"}, {"measurement": "% IP accumulation", "setting": "OX2R T111S; TAK-925 conc (log, M) -4.48", "result": "81.25% and 84.62% and 46.26%"}, {"measurement": "% IP accumulation", "setting": "OX2R T111S; TAK-925 conc (log, M) -4.95", "result": "89.34% and 80.76% and 67.67%"}, {"measurement": "% IP accumulation", "setting": "OX2R T111S; TAK-925 conc (log, M) -5.43", "result": "71.72% and 74.73% and 72.02%"}, {"measurement": "% IP accumulation", "setting": "OX2R T111S; TAK-925 conc (log, M) -5.91", "result": "64.42% and 69.82% and 64.34%"}, {"measurement": "% IP accumulation", "setting": "OX2R T111S; TAK-925 conc (log, M) -6.39", "result": "51.66% and 41.45% and 43.47%"}, {"measurement": "% IP accumulation", "setting": "OX2R T111S; TAK-925 conc (log, M) -6.86", "result": "34.40% and 35.79% and 28.55%"}, {"measurement": "% IP accumulation", "setting": "OX2R T111S; TAK-925 conc (log, M) -7.34", "result": "18.97% and 17.10% and 14.95%"}, {"measurement": "% IP accumulation", "setting": "OX2R T111S; TAK-925 conc (log, M) -7.82", "result": "8.44% and 12.15% and 9.41%"}, {"measurement": "% IP accumulation", "setting": "OX2R T111S; TAK-925 conc (log, M) -8.29", "result": "4.76% and 0.00% and 2.26%"}, {"measurement": "% IP accumulation", "setting": "OX2R T111S; TAK-925 conc (log, M) -8.77", "result": "0.00% and 8.93%"}, {"measurement": "Emax", "setting": "OX2R T111S; relative to OX2R WT/TAK-925", "result": 76}, {"measurement": "EC50", "setting": "OX2R W120A; read-out: EC50", "result": "> 30", "unit": "µM"}, {"measurement": "EC50", "setting": "OX2R W120A; read-out: pEC50 (converted)", "result": "> 30.2", "unit": "µM"}, {"measurement": "EC50", "setting": "OX2R Q187A", "result": 3.2, "unit": "µM"}, {"measurement": "β-arrestin recruitment, change on mutation of Tyr317", "setting": "OX2R Y317A", "result": "large reductions"}, {"measurement": "EC50", "setting": "OX2R Y317A; pEC50 ± SEM, read-out: pEC50 (converted)", "result": "> 30.2", "unit": "µM"}, {"measurement": "EC50", "setting": "OX2R Y317A; read-out: EC50", "result": "> 30", "unit": "µM"}, {"measurement": "EC50", "setting": "OX2R V353A", "result": 5.5, "unit": "µM"}, {"measurement": "wakefulness and sleep time", "setting": "wakefulness", "result": "dose-dependent increase in wakefulness and reduction in sleep time"}]}
